Source: the supplement of paper PMC11061612

Columns and labels:
[1] = system: SK-LU-1 (Lung Adenocarcinoma); experiment: Bliss excess, mean over the matrix (fraction); higher = more synergy
In short: (§1)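 After 24 hours at 37°C and 5% CO2 in 1536-well plates, cells in DMEM/F12 or RPMI plus 10% FBS received two-drug dose matrices for 72 hours. Viability came from CellTiter-Glo 2.0 luminescence and was scaled as inhibition, anchored at 0 by vehicle wells and at 1 by blank wells. Combination Emax is taken as the second-highest inhibition in the matrix, and Bliss excess as the observed combination effect less EA + EB − EA·EB, with EA and EB the single-agent effects.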

[2] = system: A4-Fuk (B-Lymphoblastic Leukemia); experiment: combination Emax (second highest fraction inhibited in the dose matrix, 72 h); higher = more inhibition; extreme values may be limits of the assay
In short: as §1

[3] = system: Ca-Ski (Cervical Carcinoma); experiment: as above
In short: as §1

[4] = system: HAL-01 (B-Lymphoblastic Leukemia); experiment: as above
In short: as §1

[5] = system: KGN (Other Solid Carcinomas); experiment: as above
In short: as §1

[6] = system: KMRC-1 (Kidney Carcinoma); experiment: as above
In short: as §1

[7] = system: MV-4-11 (Acute Myeloid Leukemia); experiment: as above
In short: as §1

[8] = system: NCI-H1355 (Lung Adenocarcinoma); experiment: as above
In short: as §1

[9] = system: OE33 (Esophageal Adenocarcinoma); experiment: as above
In short: as §1

[10] = system: SNU-387 (Hepatocellular Carcinoma); experiment: as above
In short: as §1

[11] = system: ALL-SIL (T-Lymphoblastic Leukemia); experiment: Bliss excess, mean over the matrix (fraction); higher = more synergy
In short: as §1

[12] = system: CADO-ES1 (Ewing's Sarcoma); experiment: as above
In short: as §1

[13] = system: EJM (Plasma Cell Myeloma); experiment: as above
In short: as §1

EW-1 (Ewing's Sarcoma) = experiment: as above
In short: as §1

[14] = system: HCC1500 (Breast Carcinoma); experiment: as above
In short: as §1

[15] = system: KOPN-8 (B-Lymphoblastic Leukemia); experiment: as above
In short: as §1

[16] = system: LC-1-sq (Squamous Cell Lung Carcinoma); experiment: as above
In short: as §1

[17] = system: NCI-H1092 (Small Cell Lung Carcinoma); experiment: as above
In short: as §1

[18] = system: NCI-H2122 (Lung Adenocarcinoma); experiment: as above
In short: as §1

[19] = system: NCI-H650 (Lung Adenocarcinoma); experiment: as above
In short: as §1
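Wherever Bliss excess, mean over the matrix is given: after 72 h of two-drug dosing.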

SMILES	Bliss excess [1]	combination Emax [2]	combination Emax [3]	combination Emax [4]	combination Emax [5]	combination Emax [6]	combination Emax [7]	combination Emax [8]	combination Emax [9]	combination Emax [10]	Bliss excess [11]	Bliss excess [12]	Bliss excess [13]	Bliss excess (EW-1 (Ewing's Sarcoma))	Bliss excess [14]	Bliss excess [15]	Bliss excess [16]	Bliss excess [17]	Bliss excess [18]	Bliss excess [19]
CN(CCO)CC[C@H](CSc1ccccc1)Nc1ccc(S(=O)(=O)NC(=O)c2ccc(N3CCC([C@@H](O)c4ccccc4-c4ccc(Cl)cc4)CC3)cc2)cc1S(=O)(=O)C(F)(F)F [AZD4320] + CC(=O)O[C@H]1C(=O)[C@@]2(C)[C@H]([C@H](OC(=O)c3ccccc3)[C@]3(O)C[C@H](OC(=O)[C@H](O)[C@@H](NC(=O)c4ccccc4)c4ccccc4)C(C)=C1C3(C)C)[C@]1(OC(C)=O)CO[C@@H]1C[C@@H]2O [Paclitaxel] (first compound max 1 µM, 7x7, partner max 3 µM)	0.116	0.97	1	0.999	0.99	0.733	1	0.984	0.678	1										
CN(CCO)CC[C@H](CSc1ccccc1)Nc1ccc(S(=O)(=O)NC(=O)c2ccc(N3CCC([C@@H](O)c4ccccc4-c4ccc(Cl)cc4)CC3)cc2)cc1S(=O)(=O)C(F)(F)F [AZD4320] + C[C@@H](Nc1cc(F)cc(F)c1)c1cc(C(=O)N(C)C)cc2c(=O)cc(N3CCOCC3)oc12 [AZD8186] (first compound max 1 µM, 7x7, partner max 3 µM)		0.373	0.509	0.935	0.493	0.771	1	0.34	0.229	0.419	0.0208	-0.0003	0.0837	0.0604	0.016	0.0392	0.022	0.0389	0	0.0081
CN(CCO)CC[C@H](CSc1ccccc1)Nc1ccc(S(=O)(=O)NC(=O)c2ccc(N3CCC([C@@H](O)c4ccccc4-c4ccc(Cl)cc4)CC3)cc2)cc1S(=O)(=O)C(F)(F)F [AZD4320] + Cn1cnc2c(F)c(Nc3ccc(Br)cc3Cl)c(C(=O)NOCCO)cc21 [Selumetinib] (first compound max 1 µM, 7x7, partner max 3 µM)		0.456	0.588	0.916	0.34	0.253	1	0.368	0.214	0.445	-0.0006	-0.0085	0.072	0.0387	0.0166	0.0821	0.0514	-0.0193	0.0399	0.119
CN(CCO)CC[C@H](CSc1ccccc1)Nc1ccc(S(=O)(=O)NC(=O)c2ccc(N3CCC([C@@H](O)c4ccccc4-c4ccc(Cl)cc4)CC3)cc2)cc1S(=O)(=O)C(F)(F)F [AZD4320] + Nc1ccn([C@@H]2O[C@H](CO)[C@@H](O)C2(F)F)c(=O)n1 [Gemcitabine] (first compound max 1 µM, 7x7, partner max 0.3 µM)	-0.036	0.914	0.91	1		0.902	1	0.406	0.586	0.218										
Cc1cc2ncnn2cc1Nc1ncc2c(n1)n(C1CCOCC1)c(=O)n2C [AZD7648] + C=CCn1c(=O)c2cnc(Nc3ccc(N4CCN(C)CC4)cc3)nc2n1-c1cccc(C(C)(C)O)n1 [AZD1775] (first compound max 10 µM, partner max 1 µM)		0.861	0.704	0.914	0.833	0.307	0.954	0.672	0.537	0.383	0.0133	0.0512	-0.012	0.0272	0.0414	-0.0472	0.0567	-0.0873	-0.0122	0.0029
Cc1cc2ncnn2cc1Nc1ncc2c(n1)n(C1CCOCC1)c(=O)n2C [AZD7648] + CCN(CCO)CCCOc1ccc2c(Nc3cc(CC(=O)Nc4cccc(F)c4)[nH]n3)ncnc2c1 [AZD2811] (first compound max 10 µM, 7x7, partner max 1 µM)		0.699	0.349	0.342	0.722	0.267	0.945	0.519	0.245	0.254	-0.0416	0.0236	0.0417	0.053	0.0507	0.0713	0.0569	0.0041	0.0547	-0.0147
Cc1cc2ncnn2cc1Nc1ncc2c(n1)n(C1CCOCC1)c(=O)n2C [AZD7648] + CN(C)CCCOc1ccc(-c2ccc3ncc4c(c3c2)n(C2CCOCC2)c(=O)n4C)cn1 [AZD0156] (first compound max 10 µM, 7x7, partner max 1 µM)		0.575	0.296	0.398	0.661	0.24	0.484	0.482	0.256	0.275	0.0467	0.0465	0.072	0.0734	0.0414	0.0351	0.03	-0.0312	0.0426	0.0061
Cc1cc2ncnn2cc1Nc1ncc2c(n1)n(C1CCOCC1)c(=O)n2C [AZD7648] + COc1cc([C@@H]2c3cc4c(cc3[C@@H](O[C@@H]3O[C@@H]5CO[C@@H](C)O[C@H]5[C@H](O)[C@H]3O)[C@H]3COC(=O)[C@H]23)OCO4)cc(OC)c1O [Etoposide] (first compound max 10 µM, 7x7, partner max 10 µM)	0.0201	0.937	0.884	1	0.863	0.478	1	0.535	0.504	0.22										
Cc1cc2ncnn2cc1Nc1ncc2c(n1)n(C1CCOCC1)c(=O)n2C [AZD7648] + C[C@@H]1COCCN1C2=NC(=NC(=C2)C3(CC3)[S@](=N)(=O)C)C4=C5C=CNC5=NC=C4 [AZD6738] (first compound max 10 µM, 7x7, partner max 10 µM)		0.765	0.581	0.984	0.873	0.518	0.983	0.661	0.784	0.388	0.0462	0.0364	0.0308	0.024	0.0489	-0.0187	0.0311	0.0073	0.0176	0.0048
COc1cc2c(cc1OCCCCCOc1cc3c(cc1OC)C(=O)N1C=C(C)C[C@H]1C=N3)N=C[C@@H]1CC(C)=CN1C2=O [SG3199] + O=C(c1cc(Cc2n[nH]c(=O)c3ccccc23)ccc1F)N1CCN(C(=O)C2CC2)CC1 [Olaparib] (first compound max 0.001 µM, 7x7, partner max 10 µM)		0.157	0.0833	0.215	0.475	0.0927	0.402	0.104	0.0504	0.104	-0.0316	0.0008	-0.0198	0.0403	-0.0144	-0.0265	-0.0029	-0.0165	0.0073	-0.0206
N#Cc1cnc(Nc2cc(NC[C@H]3CNCCO3)c(C(F)(F)F)cn2)cn1 [SRA737] + C=CCn1c(=O)c2cnc(Nc3ccc(N4CCN(C)CC4)cc3)nc2n1-c1cccc(C(C)(C)O)n1 [AZD1775] (first compound max 10 µM, partner max 1 µM)	0.0096	0.959	0.846	1	0.812	0.54	0.931	0.633	0.765	0.465										
N#Cc1cnc(Nc2cc(NC[C@H]3CNCCO3)c(C(F)(F)F)cn2)cn1 [SRA737] + CCc1c2c(nc3ccc(O)cc13)-c1cc3c(c(=O)n1C2)COC(=O)[C@]3(O)CC [SN-38] (first compound max 10 µM, 7x7, partner max 0.3 µM)	-0.0943	0.974	0.992	1	0.836	0.525	0.996	0.599	0.8	0.548										
N#Cc1cnc(Nc2cc(NC[C@H]3CNCCO3)c(C(F)(F)F)cn2)cn1 [SRA737] + Nc1ccn([C@@H]2O[C@H](CO)[C@@H](O)C2(F)F)c(=O)n1 [Gemcitabine] (first compound max 10 µM, 7x7, partner max 0.3 µM)	-0.101	0.976	0.815	1	0.947	0.733	1	0.644	0.678	0.663										
N#Cc1cnc(Nc2cc(NC[C@H]3CNCCO3)c(C(F)(F)F)cn2)cn1 [SRA737] + O=c1[nH]cc(F)c(=O)[nH]1 [5-Fluorouracil] (first compound max 10 µM, 7x7, partner max 20 µM)	-0.0137	0.905	0.862	1	0.572	0.543	0.967	0.517	0.721	0.364										
